This is an account of results in paper PMC6235536 (Science Advances, 2018).

For test [1], the system named is E. coli. Particulars: IM or OM of E. coli; cited from earlier work.
In test [2] the test system is Gram-negative strains. Particulars: all the Gram-negative strains tested; cited from earlier work.
Test [3] addresses LptA labeled with DyLight650 (E. coli) (UniProt P0ADV1). The test is described as follows: MST.
For test [4], the target named is LptA-His6 (E. coli) (UniProt P0ADV1). The test is described as follows: fluorescence polarisation. (In general: Polarisation of emitted light reports the rotation of a fluorescent probe.)

pKd: −log10 of the molar value. Residues, ends and D or L forms follow the SMILES beside them.

Turning to `CC[C@H](C)CCCCC(=O)N[C@@H](CCN)C(=O)N[C@H](C(=O)N[C@@H](CCN)C(=O)N[C@H]1CCNC(=O)[C@H]([C@@H](C)O)NC(=O)[C@H](CCN)NC(=O)[C@H](CCN)NC(=O)[C@H](CC(C)C)NC(=O)[C@@H](CC(C)C)NC(=O)[C@H](CCN)NC1=O)[C@@H](C)O` [Colistin] (HELM PEPTIDE1{[CC[C@H](C)CCCCC(=O)[*:2]].[Dab].T.[Dab].[Dab].[Dab].[dL].L.[Dab].[Dab].T}$PEPTIDE1,PEPTIDE1,5:R3-11:R2$$$V2.0; N-terminus assumed; bridges inferred), the “membrane permeabilization by other cationic antimicrobial peptides” value in test [1] was “unlike what is seen with some other cationic antimicrobial peptides”.

Turning to “D-thanatin: enantiomeric form of thanatin (comprising all D-amino acids)”, the “activity of enantiomeric form” value in test [2] is recorded as “loses much of its activity”. Take polymyxin B: the “membrane permeabilization by other cationic antimicrobial peptides” value in test [1] is reported as “unlike what is seen with some other cationic antimicrobial peptides”. As to thanatin (peptide), in test [3], the pKd (as a rule, the negative decadic logarithm of the Kd, by convention in mol/L) is 7.70.

As for thanatin-BDP-FL (peptide), the pKd in test [4] is 7.92.
